Data reported in PMC11783601, “Analogue-Sensitive Inhibition of Histone Demethylases Uncovers Member-Specific Function in Ribosomal Protein Synthesis” (Journal of the American Chemical Society, 2025).
Entries after “also recorded” stand apart in the source; their conditions may differ.

Key:
[1] = target: T1, full-length wild type KDM4D (Homo sapiens, UniProt Q6B0I6); experiment: H3K9me3 Western blot of nuclear extracts of transfected HEK293T cells; type: cell-based
T1 construct: HEK293T cells were transfected with full-length wild type KDM4B-E or their respective mutants; host or cells: HEK293T
Description: (§1) KDM4B and C are structurally homologous to KDM4A, and KDM4D and E have a catalytic pocket near-identical to that of KDM4A but lack the Tudor and PHD domains known to bind trimethylated lysine in histones (Figure 1B).[11] HEK293T cells were transfected with full-length wild type KDM4B-E or their respective mutants. Western blot analysis of nuclear preparations using the H3K9me3 antibody confirmed all of the proteins to be catalytically active (Figures 4G–N and S32–S35).
(§2) KDM4A mammalian expression plasmid in CMV vector was purchased from Addgene (plasmid #24180). KDM4B mammalian expression plasmid in CMV vector was purchased from Addgene (plasmid #24181). KDM4C mammalian expression plasmid in CMV vector was purchased from Addgene (plasmid #24214). KDM4D mammalian expression plasmid in pReciever vector was purchased from Genecopoia (EX-Z0917-M06.) KDME mammalian expression plasmid in pRP-EXP was designed from Vector Builder. The KDM4A-F185A, KDM4B-F186A, KDM4C -F187A, KDM4D-F189A, and KDM4E F186A mutants were generated using Quikchange Lightening Mutagenesis Kit (Agilent) according to manufacturer’s protocol and confirmed by Sanger […]
(§3) HEK293T/17 cells (ATCC) were grown in Delbucco’s Modified Eagle Medium (DMEM) (Corning) with 10% FBS at 37 °C (Corning), 5% CO2, and 95% relative humidity in a 6-well cell culture plate. When cells reached 90% confluency, 3 µg of plasmid and 6 µg lipofectamine 2000 (Invitrogen: 11668019) were incubated with 100 µL OptiMem. After 5 minutes the plasmid and lipofectamine were combined and incubated at room temperature for 20 minutes and added to the cell culture disk. Cells were returned to the incubator to grow for 4-6 hours. This was followed by treatment of compound treatment (n-octyl IOX121,22 or a specific NOG ester) at indicated concentrations and further culture for specified time. The media was removed, and cells were washed with ice cold PBS (Corning), then trypsinized with TrpLE Express (Gibco). The trypsinization reaction was quenched with DMEM 10% FBS and cells were pelleted then washed once with ice cold PBS. The nuclear extracts were generated by first resuspending the cell pellets in 700 µL nuclear isolation buffer (15 mM Tris pH 7.5, 60 mM KCl, 15 mM NaCl, 5 mM MgCl2, 1 mM CaCl2, 1mm DTT, 2 mM Na3Van, 250 mM sucrose, 1X Pierce protease inhibitor (Thermo Fisher #PIA32955), 1 mM PMSF, 0.3% NP40 diluted to volume with MilliQ H2O) and incubated on ice for 5 minutes.23 The samples were then pelleted by centrifugation at 2000 rcf for 5 minutes.
(§4) The supernatant was removed, and the pelleted nuclei were resuspended in 200 µL Pierce IP lysis buffer (Thermo Fisher #87787) containing 1X Pierce protease inhibitor and left on ice for 5 minutes. The nuclei were then sonicated at 100% amp for 5 minutes (pulsed 1 minute “on”, 20 seconds “rest”) using a Qsonica-Q700, cuphorn sonicator. The samples were pelleted once again at 2000 rcf for 5 minutes and the supernatant containing the nuclear extracts were collected. MgCl2 (1M) solution was added to each sample give a final concentration of 6mM. […]
(§5) Prism with the corresponding bars representing the mean and standard deviation of the population.
(§6) For the time dependent imaging, cells containing the transfected KDM4A mutant were identified by their HA signal. These cells were used to create a selection which was then imposed onto the respective H3K9me3 or BrdU images. The mean signal was then measured for H3K9me3 or BrdU only within the cells expressing the KDM4A mutant. To compare changes in H3K9me3 or BrdU between trials, the quantification values were normalized to the mean signal at t=0. The normalized, mean signal and error for H3K9me3 or BrdU were then plotted in GraphPad Prism.
(§7) 21. General protocol for Western blotting
(§8) Assay samples were mixed with appropriate volume of 4X Laemmli Dye (Bio-Rad), heated at 95 °C for 5 minutes and loaded onto 4–12% Criterion™ XT Bis-Tris protein gels (Bio-Rad #3450123) or in-house prepared SDS-polyacrylamide gel and subjected to electrophoresis […]

[2] = target: T2, full-length wild type KDM4E (Homo sapiens, UniProt B2RXH2); experiment: as above; type: cell-based
T2 construct: HEK293T cells were transfected with full-length wild type KDM4B-E or their respective mutants; host or cells: HEK293T
Description: as §1, §2, §3, §4, §5, §6, §7, §8

[3] = target: T3, full-length wild type KDM4B (Homo sapiens, UniProt O94953); experiment: as above; type: cell-based; settings: n-octyl IOX1 10 μM
T3 construct: HEK293T cells were transfected with full-length wild type KDM4B-E or their respective mutants; host or cells: HEK293T
Description: as §1, §2, §3, §4, §5, §6, §7, §8

[4] = target: T4, full-length wild type KDM4C (Homo sapiens, UniProt Q9H3R0); experiment: as above; type: cell-based
T4 construct: HEK293T cells were transfected with full-length wild type KDM4B-E or their respective mutants; host or cells: HEK293T
Description: as §1, §2, §3, §4, §5, §6, §7, §8

wild type KDM4A = target: T5, wild type KDM4A (Homo sapiens, UniProt O75164); experiment: MALDI-MS end-point demethylase assay on H3K9me3 peptide; type: biochemical
T5 construct: human KDM4A-jmjC domain (catalytic domain of KDM4A); 6xHis (N); host or cells: E. coli BL21 (DE3)
T5 sequence (O75164 142-308 limits assumed): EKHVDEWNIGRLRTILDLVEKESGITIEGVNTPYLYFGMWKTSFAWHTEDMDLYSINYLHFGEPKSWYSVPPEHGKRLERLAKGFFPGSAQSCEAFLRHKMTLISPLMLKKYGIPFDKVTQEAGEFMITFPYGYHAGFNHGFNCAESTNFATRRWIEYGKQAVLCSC
Description: To develop an appropriate inhibitor, we selected N-oxalyl glycine (NOG, 2) scaffold because of its structural similarity with 2OG and the ability to inhibit 2OG-utilizing enzymes including KDMs (Figure 1C).[29]−[31] Substituting −CH2– at C3 of 2OG with −NH– in NOG prevents its oxidative decarboxylation by KDMs, making the inhibitor cofactor-competitive. […] We synthesized a panel of eight NOG analogues (3–10), derived from L-amino acids, carrying varied steric substituents at C4, with the reasoning that a bulky substituent at C4 would selectively fit into the expanded pocket of F185A over wild type KDM4A (Figures 2B and S1–S6, Schemes S1 and S2). The inhibitory effect of each compound was determined based on the extent of enzyme-catalyzed demethylation of a canonical peptide substrate corresponding to the N-terminus of histone 3 carrying trimethylated lysine at position 9 (H3K9me3). […] Such orthogonal inhibition of the engineered demethylase constitutes a powerful chemical probe to study the functions of a specific member of an enzyme family without issues of off-target activity.
assay (Biorad) kit with BSA concentrations as a standard. […]
8. […]
2 mM L-ascorbic acid with a total assay volume of 10 µL. Fe(II) supplement and L-ascorbic acid
Lastly, the 2OG and peptide were
positive mode and analyzed on Bruker FlexAnalysis software. The percent demethylated peptide
the multiple demethylation events on the peptide. […]

T4 sequence (Q9H3R0 whole entry): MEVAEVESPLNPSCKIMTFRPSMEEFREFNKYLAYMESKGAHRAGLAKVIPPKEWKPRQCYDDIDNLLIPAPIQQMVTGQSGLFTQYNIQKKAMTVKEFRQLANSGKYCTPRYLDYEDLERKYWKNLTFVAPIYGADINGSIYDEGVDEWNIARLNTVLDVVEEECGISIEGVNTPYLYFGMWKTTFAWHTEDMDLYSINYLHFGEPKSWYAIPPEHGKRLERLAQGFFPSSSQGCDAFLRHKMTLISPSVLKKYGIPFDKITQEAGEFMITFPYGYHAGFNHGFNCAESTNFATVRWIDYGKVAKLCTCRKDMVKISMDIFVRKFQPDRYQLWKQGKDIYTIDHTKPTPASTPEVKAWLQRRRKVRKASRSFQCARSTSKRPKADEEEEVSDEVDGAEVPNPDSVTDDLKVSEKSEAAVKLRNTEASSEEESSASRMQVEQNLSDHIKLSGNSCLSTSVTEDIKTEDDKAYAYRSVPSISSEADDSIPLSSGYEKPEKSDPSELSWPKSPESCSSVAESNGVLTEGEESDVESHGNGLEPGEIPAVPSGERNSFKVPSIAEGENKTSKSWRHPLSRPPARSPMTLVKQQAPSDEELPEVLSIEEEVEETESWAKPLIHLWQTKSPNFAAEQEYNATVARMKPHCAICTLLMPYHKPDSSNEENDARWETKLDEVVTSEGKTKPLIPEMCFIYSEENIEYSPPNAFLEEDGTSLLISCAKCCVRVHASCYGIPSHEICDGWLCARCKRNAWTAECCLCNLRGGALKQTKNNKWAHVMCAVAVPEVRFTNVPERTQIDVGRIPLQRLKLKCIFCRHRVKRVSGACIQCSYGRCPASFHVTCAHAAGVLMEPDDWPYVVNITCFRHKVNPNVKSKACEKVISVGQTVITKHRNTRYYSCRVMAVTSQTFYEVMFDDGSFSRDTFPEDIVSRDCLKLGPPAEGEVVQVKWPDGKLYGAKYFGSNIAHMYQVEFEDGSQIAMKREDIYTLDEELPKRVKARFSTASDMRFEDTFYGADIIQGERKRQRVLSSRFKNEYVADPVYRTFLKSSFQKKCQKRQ
T3 sequence (O94953 whole entry): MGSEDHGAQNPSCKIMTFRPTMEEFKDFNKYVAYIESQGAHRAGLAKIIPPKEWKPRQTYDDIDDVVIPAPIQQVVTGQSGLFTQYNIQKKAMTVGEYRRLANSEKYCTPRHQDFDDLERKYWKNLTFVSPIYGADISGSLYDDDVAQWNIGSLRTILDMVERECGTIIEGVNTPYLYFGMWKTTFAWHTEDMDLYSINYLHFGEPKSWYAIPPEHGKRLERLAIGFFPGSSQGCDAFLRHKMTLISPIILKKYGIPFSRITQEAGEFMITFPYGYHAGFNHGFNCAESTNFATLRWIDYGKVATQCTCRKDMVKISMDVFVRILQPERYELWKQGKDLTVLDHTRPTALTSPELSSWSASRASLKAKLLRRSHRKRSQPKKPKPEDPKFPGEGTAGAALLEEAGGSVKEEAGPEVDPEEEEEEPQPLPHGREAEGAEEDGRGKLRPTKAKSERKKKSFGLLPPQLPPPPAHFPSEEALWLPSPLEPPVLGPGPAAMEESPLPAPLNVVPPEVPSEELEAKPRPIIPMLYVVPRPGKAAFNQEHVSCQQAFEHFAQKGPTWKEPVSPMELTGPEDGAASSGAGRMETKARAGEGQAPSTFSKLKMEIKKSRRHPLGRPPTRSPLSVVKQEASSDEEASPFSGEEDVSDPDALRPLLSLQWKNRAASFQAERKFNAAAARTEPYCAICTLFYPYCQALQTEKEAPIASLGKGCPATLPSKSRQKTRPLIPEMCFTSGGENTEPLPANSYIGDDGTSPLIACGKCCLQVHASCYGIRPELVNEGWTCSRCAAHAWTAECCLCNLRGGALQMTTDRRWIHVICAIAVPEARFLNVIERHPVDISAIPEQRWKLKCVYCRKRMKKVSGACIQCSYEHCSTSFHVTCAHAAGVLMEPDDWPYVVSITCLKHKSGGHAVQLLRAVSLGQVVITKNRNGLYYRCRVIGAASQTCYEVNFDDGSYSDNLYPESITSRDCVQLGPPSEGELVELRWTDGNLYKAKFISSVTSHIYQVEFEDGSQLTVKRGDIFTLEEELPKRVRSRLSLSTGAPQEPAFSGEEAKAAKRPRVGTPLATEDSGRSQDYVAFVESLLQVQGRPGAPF
T2 sequence (B2RXH2 whole entry): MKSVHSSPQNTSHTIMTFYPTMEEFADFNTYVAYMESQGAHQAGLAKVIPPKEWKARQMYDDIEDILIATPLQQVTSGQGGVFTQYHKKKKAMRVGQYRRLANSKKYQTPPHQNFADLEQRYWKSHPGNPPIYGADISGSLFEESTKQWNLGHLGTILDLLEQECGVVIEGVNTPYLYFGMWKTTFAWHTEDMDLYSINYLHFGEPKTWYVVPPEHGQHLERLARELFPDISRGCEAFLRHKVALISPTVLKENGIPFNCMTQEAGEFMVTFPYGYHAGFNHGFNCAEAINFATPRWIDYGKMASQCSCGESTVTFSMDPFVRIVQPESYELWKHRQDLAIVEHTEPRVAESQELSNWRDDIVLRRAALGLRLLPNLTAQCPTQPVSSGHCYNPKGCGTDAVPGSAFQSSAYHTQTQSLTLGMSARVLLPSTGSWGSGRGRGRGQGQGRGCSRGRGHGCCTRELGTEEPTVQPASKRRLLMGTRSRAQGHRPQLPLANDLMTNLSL
T1 sequence (Q6B0I6 whole entry): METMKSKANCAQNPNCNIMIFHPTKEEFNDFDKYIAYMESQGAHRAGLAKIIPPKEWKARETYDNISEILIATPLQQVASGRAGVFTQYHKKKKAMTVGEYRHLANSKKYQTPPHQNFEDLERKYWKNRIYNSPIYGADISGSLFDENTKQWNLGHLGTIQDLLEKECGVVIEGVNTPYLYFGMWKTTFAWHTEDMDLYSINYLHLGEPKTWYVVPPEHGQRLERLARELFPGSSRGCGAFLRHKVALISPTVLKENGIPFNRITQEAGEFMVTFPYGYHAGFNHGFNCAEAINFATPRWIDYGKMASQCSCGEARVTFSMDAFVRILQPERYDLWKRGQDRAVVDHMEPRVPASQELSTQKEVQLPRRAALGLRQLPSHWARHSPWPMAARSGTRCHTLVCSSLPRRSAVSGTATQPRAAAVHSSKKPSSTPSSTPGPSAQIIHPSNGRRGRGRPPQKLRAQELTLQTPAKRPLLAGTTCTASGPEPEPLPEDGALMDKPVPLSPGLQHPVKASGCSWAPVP

| Structure (SMILES) | inhibition of wild type KDM4D H3K9me3 demethylation [1] | inhibition of wild type KDM4E H3K9me3 demethylation [2] | inhibition of wild type KDM4B H3K9me3 demethylation [3] | inhibition of wild type KDM4C H3K9me3 demethylation [4] | inhibition of wild type KDM4A demethylase activity (MALDI-MS) (wild type KDM4A; H3K9me3 peptide, 200 µM 2OG, fixed concentration of NOG analogue) | dose-dependent inhibition of wild type KDM4A (wild type KDM4A; up to 500 μM) |
| --- | --- | --- | --- | --- | --- | --- |
| CCCCCCCCOC(=O)c1ccc(O)c2ncccc12 [n-octyl IOX1] | Dose-dependent inhibition; also recorded: significantly reduced | Dose-dependent inhibition; also recorded: significantly reduced | Dose-dependent inhibition; also recorded: significantly reduced | Dose-dependent inhibition; also recorded: significantly reduced |  |  |
| CC(C)CC(NC(=O)C(=O)O)C(=O)O (stereo not drawn) [compound 6, N-oxalyl leucine] |  |  |  |  | without affecting | no inhibitory effect; also recorded: does not inhibit |
